Results: the RepoRT retention time repository (doi:10.1007/s00216-021-03828-0)
Where a name gives a salt, the structure may show the parent alone.

Columns and labels:
Settings in all cases: stereoisomer not certain
[1] = RP, Merck Supelco Ascentis Express C18, 100 × 2.1 mm, 2 µm, 40 °C, 0.35 mL/min, estimated dead time 0.63 min; A: water + 0.1% formic acid, pH 3; B: acetonitrile + 0.1% formic acid, pH 3; gradient (min/%B) 0/5 2/5 17/99.9 20/99.9
[2] = RP, Merck Supelco Ascentis Express C18, 100 × 2.1 mm, 2 µm, 40 °C, 0.4 mL/min, estimated dead time 0.55 min; A: water + 0.1% formic acid, pH 3; B: acetonitrile + 0.1% formic acid, pH 3; gradient (min/%B) 0/5 2/5 17/99.9 20/99.9
[3] = RP, Merck Supelco Ascentis Express C18, 100 × 2.1 mm, 2 µm, 40 °C, 0.2 mL/min, estimated dead time 1.1 min; A: water + 0.1% formic acid, pH 3; B: acetonitrile + 0.1% formic acid, pH 3; gradient (min/%B) 0/5 2/5 17/99.9 20/99.9
[4] = RP, Merck Supelco Ascentis Express C18, 100 × 2.1 mm, 2 µm, 40 °C, 0.25 mL/min, estimated dead time 0.88 min; A: water + 0.1% formic acid, pH 3; B: acetonitrile + 0.1% formic acid, pH 3; gradient (min/%B) 0/5 2/5 17/99.9 20/99.9
[5] = RP, Merck Supelco Ascentis Express C18, 100 × 2.1 mm, 2 µm, 40 °C, 0.2 mL/min, estimated dead time 1.1 min; A: water + 0.1% formic acid, pH 3; B: acetonitrile + 0.1% formic acid, pH 3; gradient (min/%B) 0/5 2/5 17/99.9 20/99.9; remark: listed apart in the source
[6] = RP, Merck Supelco Ascentis Express C18, 100 × 2.1 mm, 2 µm, 40 °C, 0.4 mL/min, estimated dead time 0.55 min; A: water + 0.1% formic acid, pH 3; B: acetonitrile + 0.1% formic acid, pH 3; gradient (min/%B) 0/5 2/5 17/99.9 20/99.9; remark: listed apart in the source
[7] = RP, Merck Supelco Ascentis Express C18, 100 × 2.1 mm, 2 µm, 39 °C, 0.3 mL/min, estimated dead time 0.73 min; A: water + 0.1% formic acid, pH 3; B: acetonitrile + 0.1% formic acid, pH 3; gradient (min/%B) 0/5 2/5 17/99.9 20/99.9

Structure (SMILES) | LC retention time [1] [min] | LC retention time [2] [min] | LC retention time [3] [min] | LC retention time [4] [min] | LC retention time [5] [min] | LC retention time [6] [min] | LC retention time [7] [min]
COc1cc(C(O)CO)ccc1O (stereo not given) [4-HYDROXY-3-METHOXYPHENYLGLYCOL] | 1.21 | 1.07 |  |  |  |  | 
COC(=O)CCCC(=O)O [MONOMETHYLGLUTARATE] | 2.33 | 2.02 | 3.99 |  |  |  | 
CCCCCCCCCC(=O)O [DECANOATE] |  |  | 12.8 | 12 | 12.7 | 10.8 | 11.5
CCCCCC=CCC=CCCCCCCCC(=O)O [LINOLEATE] | 15.3 |  | 17 |  |  | 13.1 | 
O=C(O)CCC(=O)O [SUCCINATE] | 0.827 | 0.73 | 1.49 |  |  |  | 
CCCCCCCC(=O)O [CAPRYLATE] | 9.28 |  |  | 10 | 10.7 | 8.82 | 9.52
c1ncc2[nH]cnc2n1 [PURINE] | 0.757 |  | 1.34 | 1.07 | 1.35 |  | 
Nc1nc2c(ncn2C2OC(CO)C(O)C2O)c(=O)[nH]1 (stereo not given) [GUANOSINE] | 0.757 |  | 1.36 | 1.09 | 1.37 | 0.667 | 0.89
O=C(O)c1cccnc1C(=O)O [QUINOLINATE] |  |  | 1.38 | 1.07 | 1.38 |  | 0.937
CC(=O)NC(CCC(=O)O)C(=O)O (stereo not given) [N-ACETYLGLUTAMATE] |  |  | 1.35 | 1.06 | 1.36 |  | 0.897
CCCCCCC(=O)O [HEPTANOATE] | 5.36 |  | 6.69 |  |  |  | 
CCOC(=O)C(=O)C(C)C(=O)OCC (stereo not given) [DIETHYL 2-METHYL-3-OXOSUCCINATE] | 4.92 |  | 6.29 |  |  |  | 
Nc1ncnc2c1ncn2C1CC(O)C(CO)O1 (stereo not given) [DEOXYADENOSINE] | 0.77 |  |  | 1.09 | 1.38 | 0.667 | 0.883
NCCc1c[nH]c2ccccc12 [TRYPTAMINE] |  |  |  | 3.97 | 4.56 | 2.77 | 3.5
O=C(O)c1cccc(O)c1 [3-HYDROXYBENZOATE] |  |  |  | 4.72 | 5.31 | 3.62 | 4.28
Cc1cn(C2CC(O)C(COP(=O)(O)OP(=O)(O)OC3OC(CO)C(O)C(O)C3O)O2)c(=O)[nH]c1=O [DTDP-D-GLUCOSE] |  | 0.667 |  |  |  |  | 
CCCCCCCCC(=O)[O-] [NONANOATE] |  |  | 11.7 | 11.1 | 11.7 | 9.85 | 10.5
CCCCCCC=CCCCCCCCC(=O)[O-] [PALMITOLEATE] |  | 14.5 | 16.7 | 15.9 | 16.7 | 14.6 | 15.3
NC(=O)CCCCC1CCSS1 (stereo not given) [LIPOAMIDE] |  |  |  | 7.07 | 7.65 | 6.08 | 6.65
CC(=CCC1=C(C)C(=O)c2ccccc2C1=O)CCCC(C)CCCC(C)CCCC(C)C (stereo not given) [PHYLLOQUINONE] |  |  |  | 14.7 | 15.5 | 13.3 | 14.1
CC12CCC3c4ccc(O)cc4CCC3C1CCC2O (stereo not drawn) [ESTRADIOL-17ALPHA] |  |  |  | 9.66 | 10.3 | 8.64 | 9.22
CCCCCCCCC=CCCCCCCCCCCCCCC(=O)[O-] [NERVONATE] |  |  |  | 18.7 | 18.7 | 17.4 | 18.2
CC(C)=CCCC(C)C1CCC2C3CC=C4CC(O)CCC4(C)C3CCC12C (stereo not given) [DESMOSTEROL] |  |  |  | 15.8 | 16.6 | 14.3 | 15.1
CCCCCCCCCCCCCCCC(O)C(N)CO (stereo not given) [SPHINGANINE] |  |  |  | 11.5 | 12.1 | 10.6 | 10.9
CCCCC(CC)COC(=O)c1ccccc1C(=O)OCC(CC)CCCC (stereo not given) [BIS(2-ETHYLHEXYL)PHTHALATE] |  |  |  | 18.3 | 19 | 17 | 17.7

Structure (SMILES) | LC retention time [1] [min] | LC retention time [2] [min] | LC retention time [3] [min] | LC retention time [4] [min] | LC retention time [5] [min] | LC retention time [6] [min] | LC retention time [7] [min]
Oc1ccccc1O [PYROCATECHOL] | 1.78 | 1.52 |  | 3.05 |  | 1.55 | 
CC12CCC(=O)C=C1CCC1C2C(O)CC2(C)C(C(=O)CO)CCC12 (stereo not given) [CORTICOSTERONE] |  |  |  | 8.66 | 9.16 | 7.73 | 8.25
CC=CC=CC(=O)[O-] [SORBATE] |  |  |  | 6.4 | 7.02 | 5.28 | 5.93
O=C/C=C/c1ccccc1 [TRANS-CINNAMALDEHYDE] |  |  |  | 11.1 | 11.7 | 10.1 | 10.7
Nc1nc2c(ncn2C2OC(COP(=O)(O)OP(=O)(O)OC3OC(CO)C(O)C(O)C3O)C(O)C2O)c(=O)[nH]1 (stereo not given) [GUANOSINE DIPHOSPHATE MANNOSE] | 0.757 |  |  |  |  |  | 
O=C(O)c1ccc[nH]1 [PYRROLE-2-CARBOXYLATE] |  |  |  | 1.19 | 1.54 | 0.73 | 3.07
O=c1cccc(O)[nH]1 [2,6-DIHYDROXYPYRIDINE] |  |  |  | 1.19 | 1.53 | 0.73 | 0.947
COc1cc(CCN)ccc1O [3-METHOXYTYRAMINE] |  |  |  | 1.37 | 1.78 | 0.863 | 1.13
CCC=CCC1C(=O)CCC1CC(=O)OC (stereo not given) [METHYL JASMONATE] |  |  |  | 10.5 | 11.2 | 9.27 | 9.96
NCCc1c[nH]c2ccc(O)cc12 [SEROTONIN] |  |  |  | 1.35 | 1.77 | 0.857 | 1.12
CCCCCCCCCCCCCCCCCCCC(=O)O [ARACHIDATE] | 18.3 | 17.9 |  |  |  |  | 
Nc1ccccc1C(=O)CC(N)C(=O)O (stereo not given) [KYNURENINE] |  | 1.05 |  |  |  |  | 
CC(CCCC(C)(C)O)C1CCC2C3CC=C4CC(O)CCC4(C)C3CCC12C (stereo not given) [25-HYDROXYCHOLESTEROL] |  |  |  | 18.3 | 13.4 | 17 | 17.8
CC(O)c1ccccc1 (stereo not given) [1-PHENYLETHANOL] |  |  |  | 7.9 | 8.6 | 6.7 | 7.38
CCCCCCCCC=CCCCCCCCCCCCC(=O)O [ERUCATE] | 18.2 | 17.8 |  |  |  |  | 
Cn1c(=O)c2c(ncn2C)n(C)c1=O [CAFFEINE] |  |  |  | 4.48 | 4.96 | 3.63 | 4.12
O=C(O)c1ccc2ccccc2n1 [2-QUINOLINECARBOXYLATE] |  |  |  | 4.05 | 4.63 | 2.93 | 3.6
NCCc1ccc(O)cc1 [TYRAMINE] |  |  |  | 1.09 | 1.4 | 0.673 | 0.883
CC(CCC(=O)O)C1CCC2C3CCC4CC(O)CCC4(C)C3CC(O)C12C (stereo not given) [DEOXYCHOLATE] | 10.8 |  |  |  |  |  | 
NCC(O)c1ccccc1 (stereo not given) [PHENYLETHANOLAMINE] |  |  |  | 1.09 | 1.4 | 0.673 | 0.883
O=S(=O)(O)Oc1c[nH]c2ccccc12 [INDOXYL SULFATE] | 3.57 | 3.2 |  |  |  |  | 
CC(=O)OCC(=O)C1CCC2C3CCC4=CC(=O)CCC4(C)C3CCC12C (stereo not given) [DEOXYCORTICOSTERONE ACETATE] |  |  |  | 11.6 | 12.2 | 10.5 | 11.1
CC1C(=O)Nc2ccccc21 (stereo not given) [3-METHYL-2-OXINDOLE] |  |  |  | 6.5 | 7.09 | 5.56 | 6.16
OCC(O)C(O)CO (stereo not given) [ERYTHRITOL] | 0.997 | 0.87 |  |  |  |  | 
